From patent US20250197372A1 (priority 2020, published 2025)
Where two headings read alike, the source gives them in different places.

How the values were obtained:
[1] = target: T1, recombinant human GBA (beta-glucocerebrosidase) (Homo sapiens, UniProt P04062); assay: Beta-glucocerebrosidase (GBA, glucosylceramidase) assay (4-methylumbelliferyl-beta-D-pyranoside substrate, fluorescence); format: biochemical
T1 sequence (P04062 40-536): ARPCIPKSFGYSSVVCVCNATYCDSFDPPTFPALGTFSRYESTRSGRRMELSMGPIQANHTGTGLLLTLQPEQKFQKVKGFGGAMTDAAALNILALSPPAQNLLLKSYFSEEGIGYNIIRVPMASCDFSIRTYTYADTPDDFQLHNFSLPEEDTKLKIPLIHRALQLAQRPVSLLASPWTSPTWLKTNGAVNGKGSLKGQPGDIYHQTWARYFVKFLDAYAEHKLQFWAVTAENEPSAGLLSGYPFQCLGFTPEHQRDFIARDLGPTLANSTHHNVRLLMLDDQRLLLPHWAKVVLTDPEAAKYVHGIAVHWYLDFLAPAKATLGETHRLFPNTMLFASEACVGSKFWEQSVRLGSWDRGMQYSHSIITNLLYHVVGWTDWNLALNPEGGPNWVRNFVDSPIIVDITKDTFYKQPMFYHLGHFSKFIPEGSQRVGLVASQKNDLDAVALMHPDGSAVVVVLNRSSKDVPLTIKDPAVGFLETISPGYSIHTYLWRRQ
Description: Beta-glucocerebrosidase (GBA, also referred to glucosylceramidase): To analyze inhibitory effects of a test compound, commercially available recombinant human GBA was incubated with multiple dilutions of test compound for 60 minutes at 37° C. 4-methylumbelliferyl-beta-D-pyranoside was then introduced to the mixture as substrate. Following incubation for 60 minutes at 37° C., 1,4-methyllumbelliferone was generated, and the reaction was stopped with the stop solution (0.5 M glycine; 0.3 M NaOH, pH 10). 1,4-methyllumbelliferone was detected by fluorescence (excitation at 365 nm, emission at 440 nm). Relative fluorescence compared to untreated enzymatic activity and test compound concentration is then plotted as a function of percent inhibition. The IC50 was determined using a 4-PL curve fit as the measure of relative inhibitory activity of each test compound (see Table 3).

[2] = target: T2, recombinant alpha-glucosidase II (murine full-length glucosidase II, alpha and beta subunits, Glu 2) (Mus musculus, UniProt Q8BHN3); assay: Alpha-glucosidase II assay (4-methylumbelliferyl-alpha-D-pyranoside substrate, fluorescence); format: biochemical
T2 construct: made in house; host or cells: HEK-293T cells transduced with BacMam viruses (75% alpha, 25% beta); protein harvested from culture supernatant
T2 sequence (O08795 15-521): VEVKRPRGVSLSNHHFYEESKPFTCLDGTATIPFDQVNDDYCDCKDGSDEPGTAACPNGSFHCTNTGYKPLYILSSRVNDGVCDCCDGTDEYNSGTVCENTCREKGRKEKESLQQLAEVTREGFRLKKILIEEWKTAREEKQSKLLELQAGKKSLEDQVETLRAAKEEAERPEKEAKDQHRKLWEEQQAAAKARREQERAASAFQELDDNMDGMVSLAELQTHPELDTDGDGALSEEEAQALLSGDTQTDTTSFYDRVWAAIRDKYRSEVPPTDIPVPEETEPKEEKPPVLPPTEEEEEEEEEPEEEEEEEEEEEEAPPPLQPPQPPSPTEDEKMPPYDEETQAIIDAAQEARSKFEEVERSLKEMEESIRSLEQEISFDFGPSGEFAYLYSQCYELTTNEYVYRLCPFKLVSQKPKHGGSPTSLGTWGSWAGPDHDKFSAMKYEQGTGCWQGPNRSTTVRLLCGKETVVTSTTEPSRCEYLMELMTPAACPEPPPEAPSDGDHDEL
T2 sequence (Q8BHN3 33-944): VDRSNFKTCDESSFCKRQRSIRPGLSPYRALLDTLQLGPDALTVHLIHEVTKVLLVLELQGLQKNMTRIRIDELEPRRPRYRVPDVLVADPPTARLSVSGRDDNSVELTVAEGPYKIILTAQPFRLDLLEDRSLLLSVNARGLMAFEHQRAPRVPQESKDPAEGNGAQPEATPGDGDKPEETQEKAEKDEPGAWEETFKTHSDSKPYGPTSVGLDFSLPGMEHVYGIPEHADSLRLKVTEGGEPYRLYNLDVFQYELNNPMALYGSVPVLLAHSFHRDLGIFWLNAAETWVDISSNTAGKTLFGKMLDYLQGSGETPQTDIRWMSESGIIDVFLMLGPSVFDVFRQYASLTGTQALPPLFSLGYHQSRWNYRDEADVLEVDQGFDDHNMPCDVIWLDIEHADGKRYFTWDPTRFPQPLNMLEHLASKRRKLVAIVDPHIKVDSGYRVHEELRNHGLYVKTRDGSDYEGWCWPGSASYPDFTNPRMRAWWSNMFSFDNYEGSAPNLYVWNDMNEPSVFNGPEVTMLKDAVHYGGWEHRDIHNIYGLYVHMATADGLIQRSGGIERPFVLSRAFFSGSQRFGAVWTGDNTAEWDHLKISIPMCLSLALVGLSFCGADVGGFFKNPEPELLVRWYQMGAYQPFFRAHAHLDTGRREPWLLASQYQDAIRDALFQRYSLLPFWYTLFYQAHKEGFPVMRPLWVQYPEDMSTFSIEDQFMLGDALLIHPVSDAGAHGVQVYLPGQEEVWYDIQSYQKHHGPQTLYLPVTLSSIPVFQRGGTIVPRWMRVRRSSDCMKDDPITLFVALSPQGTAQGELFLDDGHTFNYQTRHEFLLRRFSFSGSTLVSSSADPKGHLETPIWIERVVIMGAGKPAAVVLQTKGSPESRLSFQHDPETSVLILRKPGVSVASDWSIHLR

[3] = Glucosidase 2, read-out: Glu2 IC50

SMILES | IC50 [1] | IC50 [2, 3] | IC50 [2]
[N-]=[N+]=Nc1ccc(NCCc2nccc(CCN3C[C@H](O)[C@@H](O)[C@H](O)[C@H]3CO)n2)c([N+](=O)[O-])c1 [Compound 1188, (2R,3R,4R,5S)-1-[2-(2-{2-[(4-azido-2-nitrophenyl)amino]ethyl}pyrimidin-4-yl)ethyl]-2-(hydroxymethyl)piperidine-3,4,5-triol] | 9050 nM | 1140 nM | –
OC[C@@H]1[C@@H](O)[C@H](O)[C@@H](O)CN1CCCCCCNc1cc(-c2ncccn2)cc(C2CC2)c1 [Compound 1009, (2R,3R,4R,5S)-1-(6-{[3-cyclopropyl-5-(pyrimidin-2-yl)phenyl]amino}hexyl)-2-(hydroxymethyl)piperidine-3,4,5-triol] | 2590 nM | 17 nM | –
COc1cc(NCCc2ccc(CCN3C[C@H](O)[C@@H](O)[C@H](O)[C@H]3CO)cc2)cc(C2=CCOCC2)c1 [Compound 1154, (2R,3R,4R,5S)-1-{2-[4-(2-{[3-(3,6-dihydro-2H-pyran-4-yl)-5-methoxyphenyl]amino}ethyl)phenyl]ethyl}-2-(hydroxymethyl)piperidine-3,4,5-triol] | 1700 nM | 2 nM | –
[N-]=[N+]=Nc1ccc(NCCc2cncc(CCN3C[C@H](O)[C@@H](O)[C@H](O)[C@H]3CO)n2)c([N+](=O)[O-])c1 [Compound 1187, (2R,3R,4R,5S)-1-[2-(6-{2-[(4-azido-2-nitrophenyl)amino]ethyl}pyrazin-2-yl)ethyl]-2-(hydroxymethyl)piperidine-3,4,5-triol] | 16400 nM | 3 nM | –
O=Cc1cc(-c2ncccn2)ccc1NCCCCCCN1C[C@H](O)[C@@H](O)[C@H](O)[C@H]1CO [Compound 1184, 5-(pyrimidin-2-yl)-2-({6-[(2R,3R,4R,5S)-3,4,5-trihydroxy-2-(hydroxymethyl)piperidin-1-yl]hexyl}amino)benzaldehyde] | 950 nM | 1 nM | –
[N-]=[N+]=Nc1ccc(NCc2ccc(-c3ccc(CN4C[C@H](O)[C@@H](O)[C@H](O)[C@H]4CO)cc3)cc2)c([N+](=O)[O-])c1 [Compound 1166, (2R,3R,4R,5S)-1-[(4′-{[(4-azido-2-nitrophenyl)amino]methyl}-[1,1′-biphenyl]-4-yl)methyl]-2-(hydroxymethyl)piperidine-3,4,5-triol] | 5630 nM | 2010 nM | –
N#Cc1cc(NCc2cccc(CN3C[C@H](O)[C@@H](O)[C@H](O)[C@H]3CO)c2)cc(C2=COCCO2)c1 [Compound 1044, 3-(5,6-dihydro-1,4-dioxin-2-yl)-5-{[(3-{[(2R,3R,4R,5S)-3,4,5-trihydroxy-2-(hydroxymethyl)piperidin-1-yl]methyl}phenyl)methyl]amino}benzonitrile] | 53200 nM | 2670 nM | –
Cc1cc(NCc2cccc(CN3C[C@H](O)[C@@H](O)[C@H](O)[C@H]3CO)n2)cc(-c2ccc[nH]2)c1 [Compound 1335, (2R,3R,4R,5S)-2-(hydroxymethyl)-1-{[6-({[3-methyl-5-(1H-pyrrol-2-yl)phenyl]amino}methyl)pyridin-2-yl]methyl}piperidine-3,4,5-triol] | 21500 nM | – | > 100000 nM
OC[C@@H]1[C@@H](O)[C@H](O)[C@@H](O)CN1CCc1ccc(CCNc2cc(Cl)cc(-c3ncccn3)c2)cc1 [Compound 1162, (2R,3R,4R,5S)-1-{2-[4-(2-{[3-chloro-5-(pyrimidin-2-yl)phenyl]amino}ethyl)phenyl]ethyl}-2-(hydroxymethyl)piperidine-3,4,5-triol] | 2680 nM | < 1 nM | –
COc1cc(NCCCCCCN2C[C@H](O)[C@@H](O)[C@H](O)[C@H]2CO)cc(-c2cnccn2)c1 [Compound 1197, (2R,3R,4R,5S)-2-(hydroxymethyl)-1-(6-{[3-methoxy-5-(pyrazin-2-yl)phenyl]amino}hexyl)piperidine-3,4,5-triol] | 2070 nM | 1 nM | –
OC[C@@H]1[C@@H](O)[C@H](O)[C@@H](O)CN1Cc1ccc(CNc2cc(-c3ncccn3)cc(C3CC3)c2)cc1 [Compound 1013, (2R,3R,4R,5S)-1-{[4-({[3-cyclopropyl-5-(pyrimidin-2-yl)phenyl]amino}methyl)phenyl]methyl}-2-(hydroxymethyl)piperidine-3,4,5-triol] | > 100000 nM | 153 nM | –
O=[N+]([O-])c1cc(N2CCOCC2)ccc1NCc1cccc(CN2C[C@H](O)[C@@H](O)[C@H](O)[C@H]2CO)c1 [Compound 1067, (2R,3R,4R,5S)-2-(hydroxymethyl)-1-{[3-({[4-(morpholin-4-yl)-2-nitrophenyl]amino}methyl)phenyl]methyl}piperidine-3,4,5-triol] | 3720 nM | 12800 nM | –
CC(C)(C)c1cc(NCCCCCCN2C[C@H](O)[C@@H](O)[C@H](O)[C@H]2CO)cc(-c2ncccn2)c1 [Compound 1151, (2R,3R,4R,5S)-1-(6-{[3-tert-butyl-5-(pyrimidin-2-yl)phenyl]amino}hexyl)-2-(hydroxymethyl)piperidine-3,4,5-triol] | 299 nM | < 1 nM | –
COc1cc(NCCc2ccc(CCN3C[C@H](O)[C@@H](O)[C@H](O)[C@H]3CO)cc2)cc(-c2ccco2)c1 [Compound 1153, (2R,3R,4R,5S)-1-{2-[4-(2-{[3-(furan-2-yl)-5-methoxy-phenyl]amino}ethyl)phenyl]ethyl}-2-(hydroxymethyl)piperidine-3,4,5-triol] | 1090 nM | 544 nM | –
[N-]=[N+]=Nc1ccc(NCC/C=C/CCN2C[C@H](O)[C@@H](O)[C@H](O)[C@H]2CO)c([N+](=O)[O-])c1 [Compound 1260, (2R,3R,4R,5S)-1-[(3E)-6-[(4-azido-2-nitrophenyl)amino]hex-3-en-1-yl]-2-(hydroxymethyl)piperidine-3,4,5-triol] | 1560 nM | – | 15 nM
N#Cc1cc(Cl)cc(NCCc2ccc(CCN3C[C@H](O)[C@@H](O)[C@H](O)[C@H]3CO)cc2)c1 [Compound 1134, 3-chloro-5-{[2-(4-{2-[(2R,3R,4R,5S)-3,4,5-trihydroxy-2-(hydroxymethyl)piperidin-1-yl]ethyl}phenyl)ethyl]amino}benzonitrile] | 2360 nM | 1 nM | –
[N-]=[N+]=Nc1ccc(NCCc2ccc(CCN3C[C@@H](O)[C@H](O)[C@@H](O)[C@@H]3CO)c3ccccc23)c([N+](=O)[O-])c1 (stereo in doubt) [Compound 1178, (2S,3S,4S,5R)-1-[2-(4-{2-[(4-azido-2-nitrophenyl)amino]ethyl}naphthalen-1-yl)ethyl]-2-(hydroxymethyl)piperidine-3,4,5-triol] | 5900 nM | 9360 nM | –
[N-]=[N+]=Nc1ccc(NCCc2cc(CCN3C[C@H](O)[C@@H](O)[C@H](O)[C@H]3CO)cs2)c([N+](=O)[O-])c1 [Compound 1179, (2R,3R,4R,5S)-1-[2-(5-{2-[(4-azido-2-nitrophenyl)amino]ethyl}thiophen-3-yl)ethyl]-2-(hydroxymethyl)piperidine-3,4,5-triol] | 380 nM | < 1 nM | –
COc1cc(NCCc2ccc(CCN3C[C@H](O)[C@@H](O)[C@H](O)[C@H]3CO)cc2)cc(-c2cccnn2)c1 [Compound 1157, (2R,3R,4R,5S)-2-(hydroxymethyl)-1-{2-[4-(2-{[3-methoxy-5-(pyridazin-3-yl)phenyl]amino}ethyl)phenyl]ethyl}piperidine-3,4,5-triol] | 4590 nM | 4 nM | –
